The values that follow come from patent US20170165286A1, “COMPOSITIONS AND METHODS FOR TREATING DIABETES AND LIVER DISEASES” (Cempra Pharmaceuticals, Inc., priority 2014, published 2017).

SMILES strings stand for the structures.

Series [1] concerns BLM-induced pulmonary fibrosis model mice. The series is described as follows: Bleomycin-induced lung injury: BALF analysis, body weight. It is filed as in vivo. To be noted: for BALF Eosinophil / BALF Lymphocytes / BALF Macrophages / BALF Neutrophil / BALF Total cells: oral q.d. day −2 to 6. On the procedure:
Bleomycin-Induced Lung Injury. Lung inflammation is induced in female mice by a single intratracheal administration of bleomycin. Twenty mice are divided into two groups. […] It is to be understood herein that 100 mg/kg in mice is generally considered to be equivalent to a 450-500 mg, such as 480 mg, dose in humans. Animals are sacrificed on Day 7.
(§1) Pathogen-free 7 weeks old female C57BL/6J mice are obtained from CLEA Japan (Tokyo, Japan) and allowed to acclimate at least 6 days. On day 0, twenty mice are induced to develop pulmonary fibrosis by a single intratracheal administration of bleomycin sulphate (BLM, Nippon Kayaku, Japan) in 0.9% saline in a volume of 50 μL per animal using a Microsprayer® (Penn-Century, USA). Individual body weight is measured daily during the experiment period. Survival, clinical signs and behavior of mice is monitored daily.
Solithromycin Reduces Inflammation In Mice Caused By Bleomycin-Induced Lung Injury. Pulmonary fibrosis is a problem in the management of patients who have received chemotherapy for malignancies particularly with regimens that contain bleomycin (BLM), methotrexate, cyclophosphamide, and many new agents. These patients are susceptible to pulmonary infections as well as to inflammation from pulmonary injury. […] The effects of solithromycin on the ability to prevent lung inflammation and fibrosis is described in a bleomycin induced-lung inflammation and fibrosis model. Group 1 (BLM-Vehicle): Ten BLM-induced pulmonary fibrosis model mice are orally administered vehicle (Carboxymethyl cellulose) at a volume of 10 mL/kg once daily from day −2 (two days before BLM administration) to day 6. […]
BALF samples were collected by flushing the lung via the trachea with sterile PBS three times (0.8 mL each). The first lavage was kept separate from the other two. BALF was centrifuged at 1,000×g for 3 minutes at 4° C. and the supernatant was collected and stored at −80° C. until use. The cell pellet from the first fraction and the remaining fractions of lavage fluid were pooled. Total cell number of BALF was counted with a hemocytometer and the cell differentials were determined by cytospin preparation stained with Diff-Quick (Sysmex, Japan). A differential cell count was performed on up to about 200 cells.
MMP-9 in the BALF was quantified by the Mouse Total MMP-9 Quantikine ELISA Kit (R&D Systems, USA).
Analyses of BALF (bronchoalveolar lavage fluid). The cells in BALF are counted with a hemocytometer, and cell differentials are determined in cytospin preparations stained with Diff-Quik (Sysmex, Japan) MMP-9 in the supernatants from BALF are quantified by an enzyme-linked immunosorbent assay (ELISA; Cat# MMPT90, R&D Systems, USA). Histopathological assays for lung sections are performed according to standard methods. Masson's Trichrome staining and estimation of Ashcroft Score includes HE staining. Gene expression assays using total RNA from the lung are obtained using real-time RT-PCR analyses performed for TNF-α, MCP-1 and MMP-9.

Series [2] has the same test system. The series is described as follows: Bleomycin-induced lung injury: lung histopathology (Masson's Trichrome, Ashcroft score, HE). It is filed as in vivo. The method, then:
Bleomycin-Induced Lung Injury. Lung inflammation is induced in female mice by a single intratracheal administration of bleomycin. Twenty mice are divided into two groups. From Day −2 to Day 6, one group is administered vehicle and the other is administered test drug, such as solithromycin orally at a dose of 100 mg/kg. It is to be understood herein that 100 mg/kg in mice is generally considered to be equivalent to a 450-500 mg, such as 480 mg, dose in humans. Animals are sacrificed on Day 7.
as §1
Solithromycin Reduces Inflammation In Mice Caused By Bleomycin-Induced Lung Injury. […]
Histopathological Analyses. […] The degree of pulmonary fibrosis was evaluated using the Ashcroft score (4) for the quantitative histological analysis.

Where [3] appears, read: bleomycin mice, heading says 50 mg/kg q.d.
Where [4] appears, read: bleomycin mice, heading says 50 mg/kg q.d., listed as SOLI.

In the case of `CC[C@H]1OC(=O)[C@@](C)(F)C(=O)[C@H](C)[C@@H](O[C@@H]2O[C@H](C)C[C@H](N(C)C)[C@H]2O)[C@](C)(OC)C[C@@H](C)C(=O)[C@H](C)[C@H]2N(CCCCn3cc(-c4cccc(N)c4)nn3)C(=O)O[C@]12C` [solithromycin], the MMP-9 expression result in series [1] (bleomycin mice BALF (ELISA), heading says 50 mg/kg q.d.) is recorded as “decreasing trend”. The “Body weight changes compared to vehicle group” value in series [1] (bleomycin mice, any day and day of sacrifice) is “no significant differences”. Also, in series [1] (setting [3]), the “BALF Eosinophil” value is “significantly decreased”, the “BALF Lymphocytes” value is “significantly decreased”, the “BALF Macrophages” value was “no significant difference” and the “BALF Neutrophil” value was “significantly decreased”. Further, in series [1] (setting [3]), the “BALF Total cells” value is reported as “significantly decreased”. Further, in series [1] (setting [4]), the “BALF Eosinophil” value is recorded as 0.3 ± 0.2 × 10^4, the “BALF Lymphocytes” value is recorded as 3.9 ± 1.9 × 10^4, the “BALF Macrophages” value is recorded as 16.9 ± 9.6 × 10^4 and the “BALF Neutrophil” value is 0.7 ± 0.4 × 10^4. Also, the “BALF Total cells” value in series [1] (setting [4]) was 2.2 ± 1.2 × 10^5. In addition, the “HE staining: alveolar wall thickening, diffuse alveolar destruction, inflammatory cell infiltration vs vehicle” value in series [2] is “no obvious differences”. For the same molecule, in series [2] (vehicle 1.6±0.2), the Ashcroft score is 1.4±0.5.
